US7858663B1, “Physical and chemical properties of thyroid hormone organic acid addition salts” (Pisgah Laboratories, Inc., priority 2007, dated 2010)

Experiments:
Format in all cases: physicochemical
Water solubility = assay: Water solubility
Hygroscopicity = details: compared with sodium or alkali metal salts of the thyroid hormones
[1] = Forced degradation as suspension in USP water at about 60° C., HPLC
Procedure: (§1) Chromatographic analyses were conducted on a Waters Breeze system equipped with a Waters 1525 Binary HPLC pump, 717plus Autosampler, 2487 Dual I Absorbance Detector and column heater employing a Zorbax Extend-C-18 Column (4.6×250 mm; 5 micron, 80 A). Separation occurred using a linear gradient elution according to the following table wherein eluant A consisted of 0.1% TFA in water and eluant B consisted of 0.1% TFA in acetonitrile.
(§2) Injection samples were prepared in water/1N NaOH/acetonitrile diluent (59:1:40) with analyte peaks detected at 230 nm. Analyte peaks associated with the pamoate salts were assayed against standard solutions prepared from liothyronine and levothryroxine.
(§3) The HPLC methodology was applied to freshly prepared samples of T3-pamoate and T4 pamoate and the resulting chromatograms compared with chromatograms of the materials after a four-year real-time storage under ambient laboratory conditions. Further, the pamoate salts were evaluated under forced degradation conditions to evaluate the effects of heat and moisture on the salts' chemical and thermal stability. Blank injections of the sample diluent were obtained at each time interval to determine if minor response differences observed were attributable to the diluent and the chromatographic system (eluant) or to real impurities within either liothyronine pamoate or levothyroxine pamoate.
To accelerate the potential degradation of levothyroxine pamoate and liothyronine pamoate, samples of each were individually placed in at least an 100 fold excess by weight USP water to form a suspension. The mixture was not degassed and heating was initiated to about 60° C. Multiple samples at each time point were obtained and analyzed from the mixture to assure a representative sample was obtained. FIG. 16 is an HPLC chromatogram of levothyroxine pamoate after subjection to this forced degradation condition for about 98 hours and is indicative of the unexpected stability associated with the organic acid addition salt. […]

[2] = Real-time storage stability under ambient laboratory conditions, HPLC comparison with freshly prepared material
Procedure: as §1, §2
as §3, with “pamoate. […]” for “pamoate.”

Compound: N[C@@H](Cc1cc(I)c(Oc2cc(I)c(O)c(I)c2)c(I)c1)C(=O)O [levothyroxine sodium, reference compound]
- Water solubility (Water solubility): water-soluble
- Hygroscopicity (Hygroscopicity): sufficient hygroscopic characteristics

Compound: levothyroxine pamoate
- Water solubility (Water solubility): insoluble
- HPLC chromatogram after forced degradation compared with freshly prepared material ([1]; suspension in at least 100 fold excess USP water, not degassed, about 60° C., about 98 hours): essentially identical
- HPLC chromatogram after extended storage compared with freshly prepared material ([2]; about four years, ambient laboratory conditions 18-25° C., amber glass jars, detection 230 nm): essentially identical

Compound: N[C@@H](Cc1cc(I)c(Oc2ccc(O)c(I)c2)c(I)c1)C(=O)O.N[C@@H](Cc1cc(I)c(Oc2ccc(O)c(I)c2)c(I)c1)C(=O)O.O=C(O)c1cc2ccccc2c(Cc2c(O)c(C(=O)O)cc3ccccc23)c1O [liothyronine pamoate]
- Decomposition under forced degradation (late eluting peak, retention time about 25-26 minutes) ([1]; aqueous environment at 60° C. for 148 hours): exhibited some decomposition
- Amount of degradation impurity at retention time 25-26 minutes ([1]; forced degradation, aqueous environment at 60° C. for 148 hours): significant
- Amount of degradation impurity at retention time 25-26 minutes ([2]; extended storage, about four years at ambient laboratory conditions): only a minor amount of the impurity
